Read-outs that look alike come from different tables or passages of the source.
What was measured:
[1] = parameters: species or system C57BL/6J mice; details: mouse, in vivo, po
Experimental: FIG. 3: Effects of 1α,25(OH)2D3 and new ligands (compounds A and B) on calcium levels in serum. (FIG. 3.1) Mice were fed either with vehicle (sesame oil), 1α,25(OH)2D3 2 μg/kg, 2 μg/kg compound A or 2 μg/kg compound B during 7 days. (FIG. 3.2) Mice were fed either with vehicle (Veh), 1α,25(OH)2D3 (D3), or compound A during 4 days. Data are presented as mean±SEM. Significant differences are marked as *p<0.05, ***p<0.01.
Male C57BL/6J mice, 6-7 weeks of age, were obtained from Charles River Laboratories France (l'Arbresle, France). All mice were maintained in a temperature-controlled (23° C.) facility with a 12 h light/dark cycle and were given free access to food and water. The mice were fed the EQ12310 diet from UAR (Villemoison sur Orge, France), which contained 16.8% protein, 73.5% carbohydrate and 4.8% fat. The different VDR agonists were dissolved in sesame oil and administered by oral gavage at the indicated doses. The mice were fasted 4 h before harvesting blood for subsequent Calcium measurements, which were performed as described (1).
Thereafter a detailed dose response (0.2, 0.5, 1, and 2 μg/kg) was performed with both 1α,25(OH)2D3, and compound A (FIG. 3.2). In this study compounds were gavaged during 4 consecutive days.

human VDR = target: T1, human VDR (Homo sapiens, UniProt P11473); test: Transfection and transactivation assay (GAL4 DBD-VDR LBD, UAS-TATA-luciferase reporter, 293 EBNA cells); type: cell-based; details: for VDR agonist character: summary statement
T1 construct: an expression plasmid of GAL4 DBD-VDR LBD; expressed in transfected cells; host or cells: 293 EBNA cells
T1 sequence (P11473 127-423 limits assumed): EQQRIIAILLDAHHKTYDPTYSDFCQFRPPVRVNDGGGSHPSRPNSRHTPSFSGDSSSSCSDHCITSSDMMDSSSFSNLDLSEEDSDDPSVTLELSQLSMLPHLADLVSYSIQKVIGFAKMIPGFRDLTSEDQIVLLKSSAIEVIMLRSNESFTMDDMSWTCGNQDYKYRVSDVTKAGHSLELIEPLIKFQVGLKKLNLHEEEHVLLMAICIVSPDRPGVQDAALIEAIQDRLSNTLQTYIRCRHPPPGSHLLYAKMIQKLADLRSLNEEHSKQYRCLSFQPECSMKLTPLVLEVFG
Excerpt: FIG. 2: Transcriptional activation of VDR by 1α,25(OH)2D3, compound A and compound B. 293 EBNA cells were transiently transfected with a UAS-TATA-luciferase reporter plasmid and an expression plasmid of GAL4 DBD-VDR LBD and subsequently treated with 1α,25(OH)2D3, compound A (A), and compound B (B) at 10^−10 and 10^−9M. Luciferase activity for each sample was normalized to the β-galactosidase activity. Data is shown as fold induction of agonist induced luciferase activity divided by luciferase activity of vehicle.
The human VDR LBD was subcloned into the pG4M derived plasmid as a Gal fusion protein. Transient transfection experiments for the analysis of VDR activation were performed in 48 wells plates, using a standard calcium phosphate coprecipitation technique as described (11). 293 EBNA cells were seeded (6.0×10^4 cells per well) and incubated for 24 hours at 37° C. in medium containing Dulbecco medium (DMEM+1 g/L glucose), 10% FCS, gentamycine and 1 mg/ml G418 (geneticin). 293 EBNA cells were transiently transfected with 12.5 ng of Gal-4-VDR LBD plasmid, 10 ng of UAS-TATA-luciferase reporter plasmid, and 37.5 ng of PCH110 internal control recombinant expressing β-galactoside plasmid. After cells were incubated for 8 hours at 37° C., the medium was replaced and the compounds were added in optimized serial dilutions. After 20 hours at 37° C., cells were washed with PBS and harvested in Passiv lysis buffer (Promega). The cell lysates were assayed for lusiferase and β-galactosidase activity. Luciferase activity for each sample was normalized to β-galactosidase activity. Cells were treated with 1α, 25(OH)2D3, compound A, and compound B. All experiments were performed in duplicates.

| SMILES | dose at which the effect on serum calcium levels became significant / caused hypercalcemia [1] [µg/kg] | transcriptional activities of human VDR induced, times more efficiently than 1α,25(OH)2D3 (human VDR; at 10^−10 M, 293 EBNA cells, luciferase normalized to β-galactosidase) [times] | VDR agonist character (human VDR) | dose at which the effect on serum calcium levels became significant / caused hypercalcemia ([1]; male, C57BL/6J, 4 days) [µg/kg] | effect on serum calcium levels compared with 1α,25(OH)2D3 [1] |
| --- | --- | --- | --- | --- | --- |
| C=C1/C(=C\C=C2/CCC[C@]3(C)[C@@H]([C@H](C)CCCC(C)(C)O)CC[C@@H]23)C[C@@H](O)C[C@@H]1O [1α,25(OH)2D3, reference compound] | 1 | – | – | – | – |
| C=C1/C(=C\C=C2/CCC[C@@]3(C)[C@H]2CC[C@@H]3[C@]2(C)C[C@H](CC(C)(C)O)CO2)C[C@@H](O)C[C@@H]1O [compound A, (1R,3S,5Z)-5-((E)-2-((1S,3aS,7aS)-hexahydro-1-((2S,4S)-tetrahydro-4-(2-hydroxy-2-methylpropyl)-2-methylfuran-2-yl)-7a-methyl-1H-inden-4(7aH)-ylidene)ethylidene)-4-methylenecyclohexane-1,3-diol] | – | 12 | superagonist activity | 2 | weaker effect on serum calcium levels |
| C=C1/C(=C\C=C2/CCC[C@@]3(C)[C@H]2CC[C@@H]3[C@]2(C)C[C@@H](CC(C)(C)O)CO2)C[C@@H](O)C[C@@H]1O [compound B, (1R,3S,5Z)-5-((E)-2-((1S,3aS,7aS)-hexahydro-1-((2S,4R)-tetrahydro-4-(2-hydroxy-2-methylpropyl)-2-methylfuran-2-yl)-7a-methyl-1H-inden-4(7aH)-ylidene)ethylidene)-4-methylenecyclohexane-1,3-diol] | – | – | behaves like 1α,25(OH)2D3 | – | – |
